This note sets out measurements from article PMC6930500, “Structure–Activity Relationships of 7-Substituted Dimethyltyrosine-Tetrahydroisoquinoline Opioid Peptidomimetics” (Molecules, 2019).

Test [1] concerns the target T1, human KOR (Homo sapiens, UniProt P41145).
T1 construct: expressed in transfected cells; cell lines provided by Professor Lawrence Toll
As to the kind of experiment: [35S]-GTPγS binding stimulation, KOR. Format: biochemical. As to conditions: mean (SEM). As to the method:
(§1) Each novel compound was evaluated for binding to and stimulation of KOR, MOR, and DOR. Binding affinity (Ki) was determined by competitive displacement of [^3H]-diprenorphine, a non-selective opioid receptor antagonist with similar affinity for each of the three receptors. Potency (EC50) and efficacy, expressed as percent stimulation compared to a standard agonist at each receptor, were determined by a [^35S]-GTPγS binding assay.
(§2) Membranes prepared from transfected Chinese Hamster Ovary cells stably expressing human KOR, human MOR, or human DOR were used for all assays. Cells were grown to confluence at 37 °C in 5% CO2 in 1:1 DMEM:F12 media with 10% v/v fetal bovine serum and 5% v/v penicillin/streptomycin. Membranes were prepared by washing confluent cells three times with ice cold phosphate-buffered saline (0.9% NaCl, 0.61 mM Na2HPO4, 0.38 mM KH2PO4, pH 7.4). Cells were detached from the plates by incubation in warm harvesting buffer (20 mM HEPES, 150 mM NaCl, 0.68 mM EDTA, pH 7.4) and pelleted by centrifugation at 200× g for 3 min. The cell pellet was suspended in ice-cold 50 mM Tris-HCl buffer, pH 7.4 and homogenized with a Tissue Tearor (Biospec Products, Inc, distributed by Cole-Parmer, Vernon Hills, IL, USA) for 20 s at setting 4. The homogenate was centrifuged at 20,000× g for 20 min at 4 °C, and the pellet was rehomogenized in 50 mM Tris-HCl pH 7.4 with a Tissue Tearor for 10 s at setting 2, followed by recentrifugation. The final pellet was resuspended in 50 mM Tris-HCl pH 7.4 and frozen in aliquots at −80 °C. Protein concentration was determined via Pierce BCA protein assay kit using bovine serum albumin as the standard.
(§3) Agonist stimulation of KOR, MOR, and DOR by all test compounds was determined by [^35S]-guanosine 5′-O-[γ-thio]triphosphate ([^35S]-GTPγS) binding assays as previously reported. In a 96-well plate format, membranes from cells expressing opioid receptors as described above (10 µg of protein), [^35S]-GTPγS (0.1 nM), and guanosine diphosphate (30 µM) were incubated in GTPγS buffer (50 mM Tris-HCl, 100 mM NaCl, 5 mM MgCl2, 1 mM EDTA, pH 7.4) with various concentrations of test compound at 25 °C for 1 h. Basal stimulation was determined by incubation in the absence of any ligand. After incubation, membranes were filtered through Whatman GF/C 1.2 micron glass fiber filters and washed with GTPγS buffer with no EDTA. The radioactivity remaining on the filters was then quantified by liquid scintillation counting after saturation with EcoLume liquid scintillation cocktail in a Perkin-Elmer Microbeta 2450. Data are reported as percent stimulation compared to the effects of 10 µM standard agonists—U69,593 (KOR), DAMGO (MOR), or DPDPE (DOR). Percent stimulation and EC50 values were determined via nonlinear regression analysis using GraphPad Prism software from at least three separate assays performed in duplicate. Efficacy is expressed as percent stimulation relative to standard agonists.
(In general: GTPγS is a poorly hydrolysed GTP analogue; its binding reports G protein activation.)

For test [2], the target named is T2, human DOR (Homo sapiens, UniProt P41143).
T2 construct: expressed in transfected cells; cell lines provided by Professor Lawrence Toll
Description: [3H]-diprenorphine competitive displacement binding, DOR. The note with it: membranes from CHO cells expressing human DOR; mean (SEM), n>=3 in duplicate. On the procedure:
as §1, §2
(§4) Binding affinities for all test compounds at KOR, MOR, and DOR were determined by competitive displacement of [^3H]-diprenorphine as previously reported. In a 96-well plate format, cell membranes (5–10 µg of protein) and [^3H]-diprenorphine (0.2 nM) were incubated in Tris-HCl buffer (50 mM, pH 7.4) with various concentrations of test compound at 25 °C for 1 h, allowing the mixture to reach equilibrium. Nonspecific binding was determined using the opioid antagonist naloxone (10 µM), and total binding was determined using vehicle in the absence of competitive ligand. After incubation, membranes were filtered through Whatman GF/C 1.2 micron glass fiber filters and washed with 50 mM Tris-HCl buffer. The radioactivity remaining on the filters was then quantified by liquid scintillation counting after saturation with EcoLume liquid scintillation cocktail in a Microbeta 2450 (Perkin-Elmer, Waltham, MA, USA). Binding affinity (Ki) values were calculated using the Cheng–Prusoff equation via nonlinear regression analysis using GraphPad Prism software from at least three separate binding assays performed in duplicate.

In test [3] the target is T1, human KOR. Description: [3H]-diprenorphine competitive displacement binding, KOR. As to conditions: membranes from CHO cells expressing human KOR; mean (SEM), n>=3 in duplicate. As to the method: as §1, §2, §4
Test [4] addresses T2, human DOR. As to the kind of experiment: [35S]-GTPγS binding stimulation, DOR. It counts as biochemical. The note with it: mean (SEM), * n = 2; for EC50 DOR: CHO-human DOR membranes, dns = does not stimulate, average maximal stimulation <10% at up to 10 µM; for % Stimulation DOR: versus 10 µM standard agonist DPDPE, dns = average maximal stimulation <10% at up to 10 µM. On the procedure:
as §1, §2, §3

In test [5] the target is T3, human MOR (Homo sapiens, UniProt P35372).
T3 construct: expressed in transfected cells; cell lines provided by Professor Lawrence Toll
As to the kind of experiment: [35S]-GTPγS binding stimulation, MOR. The note with it: mean (SEM), * n = 2; for EC50: CHO-human MOR membranes, dns = does not stimulate, average maximal stimulation <10% at up to 10 µM; for Emax: versus 10 µM standard agonist DAMGO, dns = average maximal stimulation <10% at up to 10 µM. Format: biochemical. On the procedure: as §1, §2, §3

Test [6] addresses T3, human MOR. Description: [3H]-diprenorphine competitive displacement binding, MOR. The note with it: membranes from CHO cells expressing human MOR; mean (SEM), n>=3 in duplicate. On the procedure: as §1, §2, §4
[7] abbreviates: CHO-human KOR membranes, * n = 2, dns = does not stimulate, average maximal stimulation <10% at up to 10 µM.
[8] abbreviates: versus 10 µM standard agonist U69,593, dns = average maximal stimulation <10% at up to 10 µM.

With `COc1ccccc1Cc1ccc2c(c1)CN(C(=O)[C@@H](N)Cc1c(C)cc(O)cc1C)CC2` [Compound 8a, (S)-2-amino-3-(4-hydroxy-2,6-dimethylphenyl)-1-(7-(2-methoxybenzyl)-3,4-dihydroisoquinolin-2(1H)-yl)propan-1-one], the figures for the EC50 at human KOR [1] (setting [7]) and on human MOR [5] were 130 nM and 92 nM, respectively. Moreover, the values for the maximal response (Emax) on human KOR [1] (setting [8]) and at human MOR [5] were 72% and 37%, respectively. The Ki – broadly, the dissociation constant of the complex between target and ligand, obtained from inhibition or displacement – on human DOR [2] was found to be 2.7 nM; at human KOR [3], 3.1 nM; at human MOR [6], 3.7 nM. The “EC50 DOR” value on human DOR [4] is “dns *”. In addition, the “% Stimulation DOR” value on human DOR [4] is “dns *”.

Turning to `Cc1cc(O)cc(C)c1C[C@H](N)C(=O)N1CCc2ccc(CN3CCc4ccccc43)cc2C1` [Compound 8y, (S)-2-amino-3-(4-hydroxy-2,6-dimethylphenyl)-1-(7-(indolin-1-ylmethyl)-3,4-dihydroisoquinolin-2(1H)-yl)propan-1-one], the results for the EC50 on human KOR [1] (setting [7]) and at human MOR [5] were 106 nM and 42 nM, respectively. Also, the Emax (commonly the greatest response seen or fitted, relative to the assay's reference) is 66% at human KOR [1] (setting [8]) and 65% at human MOR [5]. The values for the Ki at human DOR [2], at human KOR [3] and at human MOR [6] were 1.7 nM, 2.6 nM and 2.2 nM, respectively. On human DOR [4], the “EC50 DOR” value is reported as “dns *”. Besides, the “% Stimulation DOR” value at human DOR [4] is “dns *”.

Regarding `Cc1cc(O)cc(C)c1C[C@H](N)C(=O)N1CCc2ccc(Cc3cccc(C(F)(F)F)c3)cc2C1` [Compound 8g, (S)-2-amino-3-(4-hydroxy-2,6-dimethylphenyl)-1-(7-(3-(trifluoromethyl)benzyl)-3,4-dihydroisoquinolin-2(1H)-yl)propan-1-one], the EC50 (in general, the concentration that produces a half-maximal response) on human KOR [1] (setting [7]) is 319 nM; on human MOR [5] it was 205 nM. Besides, the Emax on human KOR [1] (setting [8]) was 68%; at human MOR [5] it was 45%. For the same compound, the Ki at human DOR [2] turned out to be 1.6 nM; on human KOR [3], 5.4 nM; at human MOR [6], 4.1 nM. Besides, the “EC50 DOR” value at human DOR [4] was “dns”. At human DOR [4], the “% Stimulation DOR” value is “dns”.

As to `Cc1cc(O)cc(C)c1C[C@H](N)C(=O)N1CCc2ccc(Cc3cccc4ccccc34)cc2C1` [Compound 8o, (S)-2-amino-3-(4-hydroxy-2,6-dimethylphenyl)-1-(7-(naphthalen-1-ylmethyl)-3,4-dihydroisoquinolin-2(1H)-yl)propan-1-one], the EC50 at human KOR [1] (setting [7]) stood at 349 nM; at human MOR [5], 132 nM. Also, the Emax on human KOR [1] (setting [8]) stood at 83%; on human MOR [5], 59%. Besides, the Ki on human DOR [2] is 3.2 nM; at human KOR [3] it was 4.7 nM; at human MOR [6], 5.2 nM. Besides, the “EC50 DOR” value on human DOR [4] is recorded as “dns”. Besides, the “% Stimulation DOR” value on human DOR [4] is recorded as “dns”.

As for `Cc1cc(O)cc(C)c1C[C@H](N)C(=O)N1CCc2ccc(Cc3ccnc4ccccc34)cc2C1` [Compound 8u, (S)-2-amino-3-(4-hydroxy-2,6-dimethylphenyl)-1-(7-(quinolin-4-ylmethyl)-3,4-dihydroisoquinolin-2(1H)-yl)propan-1-one], the “EC50 KOR” value on human KOR [1] (setting [7]) is “dns”. For the same compound, the “% Stimulation KOR” value at human KOR [1] (setting [8]) is reported as “dns”. Besides, on human DOR [2], affinity was put at a Ki of 0.79 nM. Further, the inhibitory constant (Ki) at human KOR [3] was found to be 8.6 nM. For the same compound, at human DOR [4], the “EC50 DOR” value is “dns *” and the “% Stimulation DOR” value is “dns *”. In addition, on human MOR [5], the midpoint of the response, the EC50, lay at 54 nM and the Emax is 45%. The Ki on human MOR [6] turned out to be 6.6 nM.

Turning to `Cc1cc(O)cc(C)c1C[C@H](N)C(=O)N1CCc2ccc(Cc3cccc4cnccc34)cc2C1` [Compound 8s, (S)-2-amino-3-(4-hydroxy-2,6-dimethylphenyl)-1-(7-(isoquinolin-5-ylmethyl)-3,4-dihydroisoquinolin-2(1H)-yl)propan-1-one], the concentration giving a half-maximal response (EC50) at human KOR [1] (setting [7]) was found to be 609 nM; at human MOR [5], 43 nM. Besides, the Emax stood at 24% on human KOR [1] (setting [8]) and 28% at human MOR [5]. Moreover, the inhibition constant Ki is 1.2 nM at human DOR [2], 10 nM at human KOR [3] and 9.7 nM at human MOR [6]. For the same compound, on human DOR [4], the “EC50 DOR” value is “dns”. The “% Stimulation DOR” value on human DOR [4] is listed as “dns”.

Take `Cc1cccc(Cc2ccc3c(c2)CN(C(=O)[C@@H](N)Cc2c(C)cc(O)cc2C)CC3)c1C` [Compound 8i, (S)-2-amino-1-(7-(2,3-dimethylbenzyl)-3,4-dihydroisoquinolin-2(1H)-yl)-3-(4-hydroxy-2,6-dimethylphenyl)propan-1-one]: the EC50 was found to be 1030 nM at human KOR [1] (setting [7]) and 380 nM at human MOR [5]. The values for the maximal response (Emax) on human KOR [1] (setting [8]) and at human MOR [5] were 54% and 34%, respectively. For the same compound, the Ki on human DOR [2] was determined as 3.6 nM; on human KOR [3] it was 5.8 nM; on human MOR [6], 5.2 nM. In addition, the “EC50 DOR” value on human DOR [4] is “dns *”. The “% Stimulation DOR” value at human DOR [4] is on record as “dns *”.
